Laboratory results reported in patent publication US20100298343A1, “5-LIPOXYGENASE-ACTIVATING PROTEIN (FLAP) INHIBITORS” (priority 2007, published 2010).

biological target: T1, 5-lipoxygenase-activating protein (FLAP) (Homo sapiens, UniProt P20292); assay: FLAP Binding Assay; conditions: human polymorphonuclear cell 100,000 g membranes; 3H MK886 or other radioligand; 30 minutes at room temperature
T1 construct: tissue Biological Speciality Corporation; host or cells: human polymorphonuclear cells (100,000 g membranes)
T1 sequence (P20292 1-161): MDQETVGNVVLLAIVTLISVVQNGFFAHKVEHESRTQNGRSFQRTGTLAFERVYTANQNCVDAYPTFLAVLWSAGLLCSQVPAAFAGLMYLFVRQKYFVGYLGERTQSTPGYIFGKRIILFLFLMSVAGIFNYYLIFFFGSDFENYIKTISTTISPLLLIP
Description: A non-limiting example of such a FLAP binding assay is as follows:
Packed human polymorphonuclear cell pellets (1.8×10^9 cells) (Biological Speciality Corporation) were resuspended, lysed and 100,000 g membranes prepared as described (Charleson et al. Mol. Pharmacol, 41, 873-879, 1992). 100,000×g pelleted membranes were resuspended in Tris-Tween assay buffer (100 mM Tris HCl pH 7.4, 140 mM NaCl, 2 mM EDTA, 0.5 mM DTT, 5% glycerol, 0.05% Tween 20) to yield a protein concentration of 50-100 μg/mL. 10 μL membrane suspension was added to 96 well Millipore plate, 78 μL Tris-Tween buffer, 10 μL ^3H MK886 or ^3H 3-[5-(pyrid-2-ylmethoxy)-3-tert-butylthio-1-benzyl-indol-2-yl]-2,2-dimethylpropionic acid (or ^125I MK591 derivative Eggler et al, J. Labelled Compounds and Radiopharmaceuticals, 1994, vXXXIV, 1147)) to 30,000 cpm, 2 μL, inhibitor and incubated for 30 minutes at room temperature. 100 μL ice-cold washed buffer was added to the incubation mixture. Plates were then filtered and washed 3× with 200 μL ice cold Tris-Tween buffer, scintillation bottoms sealed, 100 μL scintillant added, shaken for 15 minutes then counted in a TopCount. Specific binding was determined as defined as total radioactive binding minus non-specific binding in the presence of 10 μM MK886. IC50s were determined using Graphpad prism analysis of drug titration curves.

Row | SMILES | IC50 [µM]
1 | CSc1c(C(Cc2ccccc2)C(=O)O)n(C)c2ccc(OCc3ccccn3)cc12 (stereo not shown) [Example 9, 2-[1-Methyl-3-methylsulfanyl-5-(pyridin-2-ylmethoxy)-1H-indol-2-yl]-3-phenyl-propionic acid] | 10 to 100
2 | Cn1c(C(Cc2ccccc2)C(=O)O)c(S(C)(=O)=O)c2cc(OCc3ccccn3)ccc21 (stereo not shown) [Example 10, 2-[3-Methanesulfonyl-1-methyl-5-(pyridin-2-ylmethoxy)-1H-indol-2-yl]-3-phenyl-propionic acid] | 10 to 100
3 | CCS(=O)(=O)c1c(C(Cc2ccccc2)C(=O)O)n(C)c2ccc(OCc3ccccn3)cc12 (stereo not shown) [Example 11, 2-[3-Ethanesulfonyl-1-methyl-5-(pyridin-2-ylmethoxy)-1H-indol-2-yl]-3-phenyl-propionic acid] | 10 to 100
4 | Cc1cnc(COc2ccc3c(c2)c(SC(C)(C)C)c(C(Cc2cnc(C)cn2)C(=O)O)n3C)cn1 (stereo not shown) [Example 37, 2-[3-tert-Butylsulfanyl-1-methyl-5-(5-methyl-pyrazin-2-ylmethoxy)-1H-indol-2-yl]-3-(5-methyl-pyrazin-2-yl)-propionic acid] | 100 to 250
